According to patent US11198713B2, “Agents modulating beta-catenin functions and methods thereof” (FOG PHARMACEUTICALS, INC., priority 2017, dated 2021):

The compounds below were run against T1, full-length beta-catenin (Axin site) (Homo sapiens, UniProt P35222) (assay: Competition fluorescence polarization assay (Axin site probe)). Settings: competition fluorescence polarization, Table 2; read-out: in vitro FP EC50.
T1 construct: 15 nM full-length beta-catenin, 20 nM FITC labeled peptide in buffer
T1 sequence (P35222 1-781): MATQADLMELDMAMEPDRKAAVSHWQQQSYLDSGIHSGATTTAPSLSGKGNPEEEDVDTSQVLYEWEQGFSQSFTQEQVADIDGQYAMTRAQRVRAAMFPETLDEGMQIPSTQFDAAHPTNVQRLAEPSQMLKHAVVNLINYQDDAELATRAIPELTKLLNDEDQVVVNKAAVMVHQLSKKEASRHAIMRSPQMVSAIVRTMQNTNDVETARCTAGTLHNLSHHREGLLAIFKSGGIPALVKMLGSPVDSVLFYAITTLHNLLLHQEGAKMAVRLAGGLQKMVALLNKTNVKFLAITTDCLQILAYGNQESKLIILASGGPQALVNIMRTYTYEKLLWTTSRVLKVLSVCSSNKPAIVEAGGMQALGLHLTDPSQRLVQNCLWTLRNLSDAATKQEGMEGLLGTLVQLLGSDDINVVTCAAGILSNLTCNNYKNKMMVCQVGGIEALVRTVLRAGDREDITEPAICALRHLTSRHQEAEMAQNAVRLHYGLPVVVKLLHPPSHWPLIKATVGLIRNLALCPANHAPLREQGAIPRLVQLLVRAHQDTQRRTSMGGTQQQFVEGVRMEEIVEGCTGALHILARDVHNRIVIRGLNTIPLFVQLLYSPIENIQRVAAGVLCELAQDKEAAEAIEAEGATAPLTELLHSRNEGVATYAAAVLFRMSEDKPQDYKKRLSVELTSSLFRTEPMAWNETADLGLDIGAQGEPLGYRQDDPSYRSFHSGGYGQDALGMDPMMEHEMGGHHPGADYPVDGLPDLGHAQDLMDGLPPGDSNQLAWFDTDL
Assay type: binding
Outline: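 Competition FP: 15 nM full-length β-catenin pre-incubated 5 min with 20 nM FITC-labelled stapled Axin-site peptide, then titrated peptide added (3-fold series from 5 μM) for 15 min in the dark. Buffer 50 mM Tris pH 8.0, 250 mM NaCl, 2% glycerol, 0.5 mM EDTA; duplicate reads.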
With `CCC[C@H](NC(=O)[C@]12CCN(C1)C(=O)OCC=CCCCCCC[C@@](C)(NC(=O)[C@H](C)NC(C)=O)C(=O)N[C@@H]([C@@H](C)CC)C(=O)N[C@@H](CC(C)C)C(=O)N[C@@H](CC(=O)O)C(=O)N[C@@H](C)C(=O)N[C@@H](Cc1ccccn1)C(=O)N[C@@H]([C@@H](C)CC)C(=O)N2)C(=O)N[C@H](C(=O)N[C@@H](Cc1c[nH]c2ccccc12)C(N)=O)C(C)C` (single isomer, unassigned) [FP0567c Isomer 1, Ac-A-R8-I-L-D-A-2pyr-I-MB-Nva-V-W-NH2] the EC50 was > 5000 nM.
With `CC[C@H](C)[C@@H]1NC(=O)[C@H](Cc2ccccn2)NC(=O)[C@H](C)NC(=O)[C@H](CC(=O)O)NC(=O)[C@H](CC(C)C)NC(=O)[C@H]([C@@H](C)CC)NC(=O)[C@](C)(NC(=O)[C@H](C)NC(C)=O)CCCCCCC=CCOC(=O)N2CC[C@@](C(=O)N[C@@H](CC(N)=O)C(=O)N[C@H](C(=O)N[C@@H](Cc3c[nH]c4ccccc34)C(N)=O)C(C)C)(C2)NC1=O` (single isomer, unassigned) [FP0558c Isomer 2, Ac-A-R8-I-L-D-A-2pyr-I-MB-N-V-W-NH2] the EC50 was > 5000 nM.
For `CC[C@H](C)[C@@H]1NC(=O)[C@H](Cc2c[nH]cn2)NC(=O)C(C)(C)NC(=O)[C@H](CC(=O)O)NC(=O)[C@H](CC(C)C)NC(=O)[C@H]([C@@H](C)CC)NC(=O)[C@](C)(NC(=O)[C@H](C)NC(C)=O)CCCCCCC=CCOC(=O)N2CC[C@@](C(=O)N[C@@H](CCCNC(=N)N)C(=O)N[C@H](C(=O)N[C@@H](Cc3c[nH]c4ccccc34)C(N)=O)C(C)C)(C2)NC1=O` [FP0645c, Ac-A-R8-I-L-D-Aib-H-I-MB-R-V-W-NH2], the EC50 was < 100 nM.
With `CC[C@H](C)[C@@H]1NC(=O)[C@H](Cc2cccs2)NC(=O)[C@H](C)NC(=O)[C@H](CC(=O)O)NC(=O)[C@H](CC(C)C)NC(=O)[C@H]([C@@H](C)CC)NC(=O)[C@](C)(NC(=O)[C@H](C)NC(C)=O)CCCCCCC=CCOC(=O)N2CC[C@@](C(=O)N[C@@H](CCCNC(=N)N)C(=O)N[C@H](C(=O)N[C@@H](Cc3c[nH]c4ccccc34)C(N)=O)C(C)C)(C2)NC1=O` [FP0536c, Ac-A-R8-I-L-D-A-thi-I-MB-R-V-W-NH2] the EC50 was > 5000 nM.
In the case of `CC[C@H](C)[C@@H]1NC(=O)[C@H](Cc2ccccn2)NC(=O)[C@H](C)NC(=O)[C@H](CC(=O)O)NC(=O)[C@H](CC(C)C)NC(=O)[C@H]([C@@H](C)CC)NC(=O)[C@](C)(NC(=O)[C@H](C)NC(C)=O)CCCCCCC=CCOC(=O)N2CC[C@@](C(=O)N[C@@H](CC(C)C)C(=O)N[C@H](C(=O)N[C@@H](Cc3c[nH]c4ccccc34)C(N)=O)C(C)C)(C2)NC1=O` (single isomer, unassigned) [FP0557c Isomer 1, Ac-A-R8-I-L-D-A-2pyr-I-MB-L-V-W-NH2], the EC50 is reported as > 5000 nM.
In the case of `CC[C@H](C)[C@@H]1NC(=O)[C@H](Cc2c[nH]cn2)NC(=O)[C@H](C)NC(=O)[C@H](CC(=O)O)NC(=O)[C@H](CC(C)C)NC(=O)[C@H]([C@@H](C)CC)NC(=O)[C@](C)(NC(=O)[C@H](C)NC(C)=O)CCCCCCC=CCOC(=O)N2CC[C@@](C(=O)N[C@@H](CCCCN)C(=O)N[C@H](C(=O)N[C@@H](Cc3c[nH]c4ccccc34)C(N)=O)C(C)C)(C2)NC1=O` [FP0635c, Ac-A-R8-I-L-D-A-H-I-MB-K-V-W-NH2], the EC50 is reported as 100 to 500 nM.
Work on `CC[C@H](C)[C@@H]1NC(=O)[C@@](C)(NC(=O)[C@H](CCC(N)=O)NC(=O)[C@@H]2CCCN2C(C)=O)CCCCC=CCOC(=O)N2CC(C(=O)N[C@@H](Cc3c[nH]cn3)C(=O)N[C@H](C(=O)N[C@@H](CCCNC(=N)N)C(=O)N[C@@H](CCCNC(=N)N)C(=O)N[C@H](C(=O)N[C@@H](Cc3c[nH]c4ccccc34)C(=O)N[C@@H](CCCNC(=N)N)C(N)=O)C(C)C)C(C)C)(C2)NC(=O)[C@H](CC(=O)O)NC(=O)[C@H](CC(C)C)NC1=O` (single isomer, unassigned) [FP0736c, Ac-P-Q-S6-I-L-D-MA-H-V-R-R-V-W-R-NH2] yielded an EC50 of 500 to 5000 nM.
With `CCC[C@H](NC(=O)[C@]12CCN(C1)C(=O)OCC=CCCCCCC[C@@](C)(NC(=O)[C@H](C)NC(C)=O)C(=O)N[C@@H]([C@@H](C)CC)C(=O)N[C@@H](CC(C)C)C(=O)N[C@@H](CC(=O)O)C(=O)N[C@@H](C)C(=O)N[C@@H](Cc1ccccn1)C(=O)N[C@@H]([C@@H](C)CC)C(=O)N2)C(=O)N[C@H](C(=O)N[C@@H](Cc1c[nH]c2ccccc12)C(N)=O)C(C)C` (single isomer, unassigned) [FP0567c Isomer 2, Ac-A-R8-I-L-D-A-2pyr-I-MB-Nva-V-W-NH2] the EC50 was > 5000 nM.
In the case of `CC[C@H](C)[C@@H]1NC(=O)[C@](C)(NC(=O)[C@H](CCC(N)=O)NC(=O)[C@@H]2CCCN2C(C)=O)CCCN(C)C(=O)OCC=CCCC[C@](C)(C(=O)N[C@@H](Cc2c[nH]cn2)C(=O)N[C@H](C(=O)N[C@@H](CCCNC(=N)N)C(=O)N[C@@H](CCCNC(=N)N)C(=O)N[C@H](C(=O)N[C@@H](Cc2c[nH]c3ccccc23)C(=O)N[C@@H](CCCNC(=N)N)C(N)=O)C(C)C)C(C)C)NC(=O)[C@H](CC(=O)O)NC(=O)[C@H](CC(C)C)NC1=O` (single isomer, unassigned) [FP0783c, Ac-P-Q-MI-I-L-D-R5-H-V-R-R-V-W-R-NH2], the EC50 is reported as 500 to 5000 nM.
For `CC[C@H](C)[C@@H]1NC(=O)[C@H](Cc2c[nH]cn2)NC(=O)[C@H](C)NC(=O)[C@H](CC(=O)O)NC(=O)[C@H](CC(C)C)NC(=O)[C@H]([C@@H](C)CC)NC(=O)[C@](C)(NC(=O)[C@H](C)NC(C)=O)CCCCC=CCOC(=O)N(C)CC[C@@](C)(C(=O)N[C@@H](CCCNC(=N)N)C(=O)N[C@H](C(=O)N[C@@H](Cc2c[nH]c3ccccc23)C(N)=O)C(C)C)NC1=O` (single isomer, unassigned) [FP0502c Isomer 2, Ac-A-R6-I-L-D-A-H-I-MF-R-V-W-NH2], the EC50 was 100 to 500 nM.
`CC[C@H](C)[C@@H]1NC(=O)[C@H](Cc2ccccn2)NC(=O)[C@H](C)NC(=O)[C@H](CC(=O)O)NC(=O)[C@H](CC(C)C)NC(=O)[C@H]([C@@H](C)CC)NC(=O)[C@](C)(NC(=O)[C@H](C)NC(C)=O)CCCCCCC=CCOC(=O)N2CC[C@@](C(=O)N[C@@H](CO)C(=O)N[C@H](C(=O)N[C@@H](Cc3c[nH]c4ccccc34)C(N)=O)C(C)C)(C2)NC1=O` (single isomer, unassigned) [FP0560c Isomer 2, Ac-A-R8-I-L-D-A-2pyr-I-MB-S-V-W-NH2] was tested, and the EC50 was > 5000 nM.
With `CC[C@H](C)[C@@H]1NC(=O)[C@](C)(NC(=O)[C@H](CCC(N)=O)NC(=O)[C@@H]2CCCN2C(C)=O)CCCC=CCOC(=O)N2CC[C@@](C(=O)N[C@@H](Cc3c[nH]cn3)C(=O)N[C@H](C(=O)N[C@@H](CCCNC(=N)N)C(=O)N[C@@H](CCCNC(=N)N)C(=O)N[C@H](C(=O)N[C@@H](Cc3c[nH]c4ccccc34)C(=O)N[C@@H](CCCNC(=N)N)C(N)=O)C(C)C)C(C)C)(C2)NC(=O)[C@H](CC(=O)O)NC(=O)[C@H](CC(C)C)NC1=O` (single isomer, unassigned) [FP0758c, Ac-P-Q-R5-I-L-D-MB-H-V-R-R-V-W-R-NH2] the EC50 was 500 to 5000 nM.
`CC[C@H](C)[C@@H]1NC(=O)[C@H](Cc2c[nH]cn2)NC(=O)[C@H](C)NC(=O)[C@H](CC(=O)O)NC(=O)[C@H](CC(C)C)NC(=O)[C@H]([C@@H](C)CC)NC(=O)[C@](C)(NC(=O)[C@H](C)NC(C)=O)CCCCCCC=CCCC[C@@](C)(C(=O)N[C@@H](CCCNC(=N)N)C(=O)N[C@H](C(=O)N[C@@H](Cc2c[nH]c3ccccc23)C(N)=O)C(C)C)NC1=O` (single isomer, unassigned) [FP0217s Isomer 2, Ac-A-R8-I-L-D-A-H-I-S5-R-V-W-NH2] was tested, and the EC50 was < 100 nM.
`CC[C@H](C)[C@@H]1NC(=O)[C@](C)(NC(=O)[C@H](CCC(N)=O)NC(=O)[C@@H]2CCCN2C(C)=O)CCCCC=CCOC(=O)N2CC[C@](C(=O)N[C@@H](Cc3c[nH]cn3)C(=O)N[C@H](C(=O)N[C@@H](CCCNC(=N)N)C(=O)N[C@@H](CCCNC(=N)N)C(=O)N[C@H](C(=O)N[C@@H](Cc3c[nH]c4ccccc34)C(=O)N[C@@H](CCCNC(=N)N)C(N)=O)C(C)C)C(C)C)(C2)NC(=O)[C@H](CC(=O)O)NC(=O)[C@H](CC(C)C)NC1=O` (single isomer, unassigned) [FP0767c, Ac-P-Q-R6-I-L-D-MC-H-V-R-R-V-W-R-NH2] gave an EC50 of 100 to 500 nM.

Same assay, conditions: competition with FITC labeled Axin-site probe, 15 nM full-length beta-catenin; read-out: FP EC50
Work on `CC[C@H](C)[C@@H]1NC(=O)[C@@](C)(NC(=O)[C@H](CCC(N)=O)NC(=O)[C@@H]2CCCN2C(C)=O)CCCC=CCCC[C@@](C)(C(=O)N[C@@H](Cc2c[nH]cn2)C(=O)N[C@H](C(=O)N[C@@H](CCCNC(=N)N)C(=O)N[C@@H](CCCNC(=N)N)C(=O)N[C@H](C(=O)N[C@@H](Cc2c[nH]c3ccccc23)C(=O)N[C@@H](CCCNC(=N)N)C(N)=O)C(C)C)C(C)C)NC(=O)[C@H](CC(=O)O)NC(=O)[C@H](CC(C)C)NC1=O` (single isomer, unassigned) [FP-0787] yielded an EC50 of ~100 nM.
